Assay results reported in patent publication US20080081078A1, “Prevention of Cell Proliferation by Inhibiting Myosin Light Chain Kinase” (The Board of Trustees of the University of Illinois, priority 2006, published 2008).
Like-named read-outs stand apart in the source and are kept apart here.

Tests used:
[1] = tested on: Mm5MT mouse mammary cancer cells; test: Annexin V / PI flow cytometry apoptosis assay in Mm5MT cells; assay type: cell-based
Protocol: (§1) The Mm5MT mouse mammary adenocarcinoma cancer cell line was obtained from American Type Culture Collection (ATCC, Manassas, Va., USA) and was maintained in DMEM medium supplemented with 10% fetal bovine serum (FBS) and 100 U/ml penicillin, 100 μg/ml streptomycin. The MatLy-Lu (MLL) sub-line of the Dunning R-3327 prostate adenocarcinoma (graciously provided by B. Lokeshwar, University of Miami) (Lokeshwar et al., Int. J. Cancer 2002; 98:297-309) was maintained in RPMI1640 medium supplemented with 10% FBS, 250 nM dexamethasone, 100 U/ml penicillin and 100 μg/ml streptomycin.
Mm5MT or MLL cells (200,000 cells per well) were seeded in 6-well dishes one day before drug treatment and cultured as described above. On the day of the experiment, media was changed to DMEM supplemented with 0.5% FBS and the cells were treated with drugs as defined by the specific experimental protocol. ML-7 (Biomol, Plymouth Meeting, Pa.) was incubated with cells for 16 h when used alone. When used in combination with etoposide, ML-7 was added to cells 2 h before adding the indicated concentration of etoposide (Calbiochem, La Jolla, Calif.) and the cells were incubated with ML-7 and etoposide for an additional 16 h. The cells were then treated with trypsin, washed twice with cold PBS and re-suspended in 100 μl of buffer containing 10 mM Hepes, pH 7.4, 140 mM NaCl and 2.5 mM CaCl2 (binding buffer). […] Next, 400 μl of binding buffer was added per sample and the cells were analyzed cytofluorometrically using a Coulter Epics Elite ESP flow cytometer (Ex: 488 nm, Em: 585 nm). At least 10,000 cells were counted per analysis and cells that stained positive for annexin V and PI were judged to be apoptotic.
(§2) Cells were grown in culture dishes in Dulbecco's Modified Eagle Medium (Gibco BRL, Gaithersburg, Md.) supplemented with 10% FBS and 1% penicillin and streptomycin. […] The floating and attached cells were combined and analyzed using conventional methods.
(§3) To quantify apoptosis, cells were washed twice with cold PBS, resuspended in 100 μl of 10 mM Hepes, pH 7.4, 140 mM NaCl, 2.5 mM CaCl2 (Binding Buffer). […] After incubation, 400 μl of binding buffer was added per sample and cells were analyzed cytofluorimetrically using a Coulter Epics Elite ESP flow cytometer (excitation wavelength: 488 nm, emission wavelength: 585 nm). At least 10,000 cells were counted per analysis and cells that stained positive for Annexin V and PI were considered apoptotic.
The combined effects of ML-7 and etoposide to induce apoptosis in mouse Mm5MT mammary cancer cells was determined by pre-treating cells with vehicle (FIG. 9, open bar) or 10 μM ML-7 (shaded bar) for 2 h. Varying concentrations of etoposide (1-1000 μM) were then added and apoptosis was quantified 16 h later. […]

[2] = tested on: MLC-P; test: MLC-P by urea/glycerol gel immunoblotting in Mm5MT cells; assay type: cell-based, mouse; details: 10 μM ML-7, 30 μM etoposide or both, 16 h
Protocol: MLC-P protein was measured by urea/glycerol gel immunoblotting. Mm5MT or MLL cancer cells in 6-well plates were treated with ML-7 (10 or 5 μM, respectively) or etoposide (30 μM) or combination of two at indicated concentrations for 16 h. MLC-P in cancer cells was then quantified by the urea/glycerol gel-immunoblotting method. Briefly, cancer cells were fixed in 10% trichloroacetic acid (TCA) containing 10 mM dithiothreitol (DTT). Cell pellets were washed four times with acetone and protein was extracted by dissolving in buffer containing 9 M urea, 10 mM DTT and 20 mM Tris, pH 8.0. […] This antibody recognizes the unphosphorylated and phosphorylated forms of MLC20. Immunoreactive bands were visualized using enhanced chemiluminescence (ECL) detection reagents (Amersham Pharmacia Biotech, Piscataway, N.J.).
MLC-P was measured by urea/glycerol gel-immunoblotting as described above. Un and P identify unphosphorylated and phosphorylated MLC20, respectively. […] This experiment was repeated four times and the data from a representative experiment is shown.

[3] = tested on: Mm5MT cells
Protocol: To investigate the anticancer activity of ML-7 in vivo, Mm5MT cells grown in culture were harvested immediately before injection into syngeneic MMTV-C3H/HeN mice. Cells were washed to remove serum and 10^6 cells were resuspended in 100 μl of serum-free DMEM. Healthy, MMTV-free female mice (14-20 weeks old) were anesthetized with ether and 10^6 cells were injected subcutaneously into the right flank. The mice were randomly divided into four groups of five mice each, and treated with vehicle, ML-7, etoposide or ML-7 plus etoposide. […] To deliver ML-7, a small horizontal incision was made in the interscapular area and a 200 μl osmotic pump (Alzet, Cupertino, Calif.) filled with either 27 mM ML-7 in 50% DMSO or 50% DMSO (vehicle control) was implanted and the wound closed. When given, 25 mg/kg etoposide was injected intraperitoneally on the first 3 days of every week for 4 weeks (days 7-9, 14-16, 21-23 and 28-30). The mice were sacrificed with ether after 4 weeks of drug administration and tumors were removed, weighed and processed for analysis.
Excised tumors were gently patted dry and weighed using a Mettler digital balance. Tumors were sectioned into 2 mm slices, fixed in 10% neutral buffered formalin, routinely processed and embedded in paraffin. […] Photomicrographs documenting the entire section were collected and areas of necrotic and viable tumor were determined using the manual tracing tools within MetaMorph 6.2 (Universal Imaging Corporation, Downingtown, Pa.).

[4] = tested on: MLL rat prostate cancer cells; test: Annexin V / PI flow cytometry apoptosis assay in MLL (MatLyLu) cells; assay type: cell-based
Protocol: as §1
Mm5MT or MLL cells (200,000 cells per well) were seeded in 6-well dishes one day before drug treatment and cultured as described above. On the day of the experiment, media was changed to DMEM supplemented with 0.5% FBS and the cells were treated with drugs as defined by the specific experimental protocol. ML-7 (Biomol, Plymouth Meeting, Pa.) was incubated with cells for 16 h when used alone. When used in combination with etoposide, ML-7 was added to cells 2 h before adding the indicated concentration of etoposide (Calbiochem, La Jolla, Calif.) and the cells were incubated with ML-7 and etoposide for an additional 16 h. The cells were then treated with trypsin, washed twice with cold PBS and re-suspended in 100 μl of buffer containing 10 mM Hepes, pH 7.4, 140 mM NaCl and 2.5 mM CaCl2 (binding buffer). Then, 5 μl of FITC-conjugated annexin V (Pharmingen, San Diego, Calif.) and 10 μl of propidium iodide (PI) (50 μg/ml) were added and cells were incubated in the dark at room temperature for 15 min. Next, 400 μl of binding buffer was added per sample and the cells were analyzed cytofluorometrically using a Coulter Epics Elite ESP flow cytometer (Ex: 488 nm, Em: 585 nm). At least 10,000 cells were counted per analysis and cells that stained positive for annexin V and PI were judged to be apoptotic.
as §2, §3
Cells were collected 16 h after adding etoposide and apoptosis was quantified by FACS analysis.

Q: Which results are given for `COc1cc([C@@H]2c3cc4c(cc3[C@@H](O[C@@H]3O[C@@H]5CO[C@@H](C)O[C@H]5[C@H](O)[C@H]3O)[C@H]3COC(=O)[C@H]23)OCO4)cc(OC)c1O` [etoposide]?
A: EC50 ([1]; etoposide alone, extrapolation (FIG. 8), read-out: concentration of etoposide required to induce apoptosis in 50% of the cells): ~300 µM; EC50 ([1]; minus ML-7, curve fitting (FIG. 9), read-out: concentration of etoposide required for inducing apoptosis in 50% of the cells): 572 µM; EC50 ([1]; plus 10 μM ML-7 (2 h pre-treatment), curve fitting (FIG. 9), read-out: concentration of etoposide required for inducing apoptosis in 50% of the cells): 25.4 µM; EC50 ([1]; plus ML-7 (10 μM), extrapolation (FIG. 8), read-out: concentration of etoposide required to induce apoptosis in 50% of the cells): ~20 µM; MLC-P [2]: decreased MLC-P; tumor necrosis (histology) ([3]; FIG. 14B): Limited areas of necrosis; tolerability ([3]; mouse, in vivo): without visible signs of discomfort; tumor growth ([3]; single agents vs vehicle, only the etoposide effect statistically significant): decreased tumor growth; EC50 ([4]; MLL cells, no ML-7 (FIG. 15), read-out: concentration of etoposide required for inducing apoptosis in 50% of the cells): 376 µM; EC50 ([4]; MLL cells, with 5 μM ML-7 pre-treatment (FIG. 15), read-out: concentration of etoposide required for inducing apoptosis in 50% of the cells): 68 µM; EC50 ([4]; MatLyLu cells, etoposide alone (FIG. 7), read-out: half-maximal concentration for producing apoptosis): ~410 µM; EC50 ([4]; MatLyLu cells, etoposide plus 5 μM ML-7 (FIG. 7), read-out: half-maximal concentration for producing apoptosis): ~40 µM
